Reference: patent US20040156881A1, “Use of lignans in foods” (priority 2001, published 2004)

How the values were obtained:
[1] = system: Prostaglandin E2 (=PGE2) production by the human skin fibroblasts; test: PGE2 levels in PMA-induced human dermal fibroblasts (anti-inflammatory cell assay); type: cell-based; conditions: primary human foreskin fibroblasts, FIGS. 1 and 2; for concentration dependence of anti-inflammatory effect as measured by a reduction in PGE2: increasing concentrations; for anti-inflammatory effect (PGE2 level versus control+veh+PMA): three concentration levels
Method: It is emphasized that the anti-inflammatory effects were determined by in vitro tests wherein the Prostaglandin E2 (=PGE2) production by the human skin fibroblasts is measured after being induced by the inflammatory modulus phorbyl myristyl acetate (PMA). A reduction of the levels of PGE2 is indicative of the anti-inflammatory effect.
Fibroblast cell assay: Primary human foreskin fibroblasts at passage 2 (P2) were seeded into 96-well plates at 35000 cells/well and maintained for 24 hours in an atmosphere of 5% carbon dioxide in Dulbeccos Modified Eagles Medium (DMEM) supplemented with 10% foetal calf serum.
The lignan-compound (SECO or MAT) was added to fresh cell media (DMEM, supplemented with 10% foetal calf serum) in 100% ethanol (final concentration 1%) in triplicate and incubated for a further 24 hours. Phorbal myristate acetate (PMA) in ethanol/cell media ([…]) was added to the cells treated with the lignan compound (SECO) and the cells incubated for a further 24 hours. PMA represents an external stressor, which induces oxidative stress and inflammatory responses in cells. The fibroblasts/media were then analysed as described below immediately, or, snap frozen in liquid nitrogen and stored at −70° C. for future analysis. The cells were then counted to ensure no effect on cell number.
Different concentrations of SECO or MAT were used in the above method to study the effect of concentration. A series of control experiments were also carried out according to the above method; Control+veh+PMA (positive control), Control+veh (negative control) and control (standard control).
Prostaglandin E2 (PGE2) assay volumes of 50 μl culture medium were taken for PGE2 assay from the above samples after gently shaking the culture plate. PGE2 levels in the medium were determined with a Biotrak PGE2 immunoassay kit (Amersham, UK). The assay is based on the competition between unlabelled PGE2 in the sample and a fixed quantity of horseradish peroxidase labelled PGE2 for a limited amount of fixed PGE2 specific antibody. Concentrations of unlabelled sample PGE2 are determined according to a standard curve, which was obtained at the same time.

[2] = system: Procollagen-I and Decorin production by the human dermal fibroblasts; test: Procollagen-I and decorin synthesis in human dermal fibroblasts (anti-ageing cell assay, dot blot); type: cell-based; conditions: primary human foreskin fibroblasts, serum free DMEM, 24 hours, different concentration levels, FIGS. 3 and 4
Method: It is emphasized that the anti-ageing effects were determined by in vitro tests wherein the Procollagen-I and Decorin production by the human dermal fibroblasts is measured after being induced by the anti-ageing stimulus. An increase in the levels of Procollagen-I is indicative of the anti-ageing effect.
Preparation of Dermal Fibroblast Conditioned Medium: Primary human foreskin fibroblasts at passage 2 (P2) were seeded into 12-well plates at 40000 cells/well and maintained for 24 hours in an atmosphere of 5% carbon dioxide and 4% oxygen in Dulbeccos Modified Eagles Medium (DMEM) supplemented with 10% foetal calf serum. After this time the cells were washed with serum free DMEM and then incubated in fresh serum free DMEM for a further 60 hours. The fibroblast monolayers were then washed again with serum free DMEM.
The test reagent (MAT and SECO at different concentration levels) and vehicle control (1% ethanol final concentration) were added to the cells in triplicate in a final volume of 0.4 ml/well fresh serum free DMEM and incubated for a further 24 hours. This fibroblast conditioned medium was either analysed immediately, or, snap frozen in liquid nitrogen and stored at −70° C. for future analysis. The cells were then counted and data from the dot-blot analysis subsequently standardised to cell number. […]

Compound	concentration dependence of anti-inflammatory effect as measured by a reduction in PGE2 [1]	anti-inflammatory effect (PGE2 level versus control+veh+PMA) [1]	anti-ageing effects (procollagen-I and decorin synthesis relative to vehicle treated control of 100 arbitrary units) [2]
COc1cc(C[C@H]2COC(=O)[C@@H]2Cc2ccc(O)c(OC)c2)ccc1O [MAT, matairesinol]	produced increasing anti-inflammatory effects	effective in producing an anti-inflammatory effect in human cells	showed increased anti-ageing effects in human cells compared to a control sample
COc1cc(C[C@@H](CO)[C@H](CO)Cc2ccc(O)c(OC)c2)ccc1O [SECO, secoisolariciresinol]	produced increasing anti-inflammatory effects	effective in producing an anti-inflammatory effect in human cells	showed increased anti-ageing effects in human cells compared to a control sample
